Reference: US20040198794A1, “Ondansetron forms and processes of making the same” (priority 2003, published 2004)

Tests used:
Type in all cases: physicochemical
[1] = Solvent-induced conversion between forms by slurrying
Description: It is sensitive to a solvent-induced conversion into a form II defined below by slurrying in some polar solvents, e.g. in methanol or water, while it is inert to the same slurrying or solvent treatment in non-polar solvents. […] Form II is resistant to a solvent-inducing conversion to form I at ambient temperature.

[2] = Storage stability of solid ondansetron forms
[3] = Dissolution and release of microcrystalline ondansetron; conditions: particle size smaller than 200 microns
Description: It has been further discovered that ondansetron base having a particle size smaller than 200 microns (hereinafter “microcrystalline ondansetron”) is more suitable in making pharmaceutical formulations.

[4] = Hydration of solid ondansetron base on exposure to humidity
Description: After storage of the anhydrate form at humidity exceeding 10% RH, hydrates may be formed. A stable hydrated form comprise 1.3-1.5% of water, this corresponding to approximately 0.25 molar equivalent of water (a hemi-hemihydrate). Accordingly, another ondansetron form of the present invention is an ondansetron hydrate comprising ondansetron and water wherein the amount of water relative to ondansetron is within the range of 0.23-0.27 moles, more preferably 0.24-0.26 moles, per each one mole of ondansetron. Exposure of this or the anhydrated product to enhanced humidity (70% RH) results in a product having about 3% water content which corresponds to a hemihydrate (0.5 molar equivalent of water). Exposure to extreme humidity of about 90% or more leads to a monohydrate form of about 5% water. The most useful hydrated form of ondansetron base is the hemi-hemi hydrate as this is formed under most precipitation conditions and is stable. The above forms I or II are preferably hydrates containing 1.3-1.5% of water.

In the case of `Cc1nccn1CC1CCc2c(c3ccccc3n2C)C1=O` (stereo not shown) [Form II], the “solvent-inducing conversion to form I” value ([1]; ambient temperature) was “resistant”, the “form conversion during storage” value ([2]; prolonged storage at 40° C./75% relative humidity (RH)) was “partial conversion to Form I” and the stability during storage ([2]; room temperature, stored in closed vial) was “stable”.
For `Cc1nccn1CC1CCc2c(c3ccccc3n2C)C1=O` (stereo not shown) [form I], the “solvent-induced conversion into form II” value ([1]; slurrying in some polar solvents, e.g. methanol or water) was “sensitive”, the “solvent-induced conversion into form II” value ([1]; slurrying or solvent treatment in non-polar solvents) was “inert” and the stability during storage ([2]; storage at ambient and elevated temperatures) was “sufficiently stable”.
With `Cc1nccn1CC1CCc2c(c3ccccc3n2C)C1=O` (stereo not shown) [microcrystalline ondansetron] the “dissolution in liquid medium” value ([3]; making liquid compositions) was “dissolves more rapidly” and the “release from the tablet composition” value [3] was “releases more rapidly”.
In the case of `Cc1nccn1CC1CCc2c(c3ccccc3n2C)C1=O` (stereo not shown) [ondansetron base], the “water content after exposure to humidity” value ([4]; enhanced humidity (70% RH), corresponds to a hemihydrate) was “about 3%” and the “water content after exposure to humidity” value ([4]; extreme humidity of about 90% or more, monohydrate form) was “about 5%”.
